Experiment: mn = molality of the nth substance listed, in mol/kg
Settings: Liquid; for electrical conductivity: Frequency=0.0003 MHz, Alternating current cell with electrodes; for viscosity: Falling or rolling sphere viscometry; for mass density: Vibrating tube method

C[C@H](N)C(=O)O [(S)-2-aminopropanoic acid] + O
Settings | electrical conductivity, m1 = 0.1 [S/m] | electrical conductivity, m1 = 0.3 [S/m] | electrical conductivity, m1 = 0.5 [S/m] | mass density, m1 = 0.1 [kg/m3] | mass density, m1 = 0.3 [kg/m3] | mass density, m1 = 0.5 [kg/m3] | viscosity, m1 = 0.1 [mPa·s] | viscosity, m1 = 0.3 [mPa·s] | viscosity, m1 = 0.5 [mPa·s]
288.15 K, 87 kPa | 0.000237 | 0.000567 | 0.000861 | – | – | – | – | – | –
288.15 K, 100 kPa | – | – | – | 1002.1 | 1007.7 | 1013.3 | 1.16 | 1.223 | 1.286
298.15 K, 87 kPa | 0.000293 | 0.000659 | 0.000968 | – | – | – | – | – | –
298.15 K, 100 kPa | – | – | – | 999.97 | 1005.51 | 1011.05 | 0.91 | 0.955 | 1.001
308.15 K, 87 kPa | 0.000357 | 0.000783 | 0.00117 | – | – | – | – | – | –
308.15 K, 100 kPa | – | – | – | 996.94 | 1002.42 | 1007.9 | 0.738 | 0.774 | 0.809
318.15 K, 87 kPa | 0.000441 | 0.000946 | 0.00141 | – | – | – | – | – | –
318.15 K, 100 kPa | – | – | – | 993.09 | 998.47 | 1003.85 | 0.613 | 0.649 | 0.685

NCC(=O)O [2-aminoacetic acid] + O
87 kPa
Settings | electrical conductivity, m1 = 0.1 [S/m] | electrical conductivity, m1 = 0.3 [S/m] | electrical conductivity, m1 = 0.5 [S/m] | mass density, m1 = 0.1 [kg/m3] | mass density, m1 = 0.3 [kg/m3] | mass density, m1 = 0.5 [kg/m3] | viscosity, m1 = 0.1 [mPa·s] | viscosity, m1 = 0.3 [mPa·s] | viscosity, m1 = 0.5 [mPa·s]
288.15 K | 0.000925 | 0.00227 | 0.00355 | 1002.42 | 1008.66 | 1014.9 | 1.144 | 1.176 | 1.208
298.15 K | 0.000963 | 0.00239 | 0.00381 | 1000.23 | 1006.29 | 1012.35 | 0.924 | 0.95 | 0.984
308.15 K | 0.00101 | 0.00253 | 0.0041 | – | 1003.23 | 1009.25 | 0.729 | 0.749 | 0.77
318.15 K | 0.00106 | 0.00269 | 0.00445 | 993.28 | 999.24 | 1005.2 | 0.613 | 0.638 | 0.662

Reference: the NIST ThermoML archive (doi:10.1016/j.jct.2016.07.047)
